Measured values from US12157741B2, “Macrocyclic inhibitors of DYRK1A” (DANA-FARBER CANCER INSTITUTE, INC., priority 2018, dated 2024).

How the values were obtained:
various enzymes [1] = molecular target: various enzymes (Homo sapiens, UniProt Q9Y6M4); settings: CSNK1G3; 1 uM
Protocol: (§1) Ambit profiling from Eurofins (formerly Discoverx) was conducted in accordance with the manufacturer's instructions.

various enzymes [2] = molecular target: T1, various enzymes (Homo sapiens, UniProt Q9NRM7); settings: LATS2; 1 uM
T1 sequence (Q9NRM7 1-1088): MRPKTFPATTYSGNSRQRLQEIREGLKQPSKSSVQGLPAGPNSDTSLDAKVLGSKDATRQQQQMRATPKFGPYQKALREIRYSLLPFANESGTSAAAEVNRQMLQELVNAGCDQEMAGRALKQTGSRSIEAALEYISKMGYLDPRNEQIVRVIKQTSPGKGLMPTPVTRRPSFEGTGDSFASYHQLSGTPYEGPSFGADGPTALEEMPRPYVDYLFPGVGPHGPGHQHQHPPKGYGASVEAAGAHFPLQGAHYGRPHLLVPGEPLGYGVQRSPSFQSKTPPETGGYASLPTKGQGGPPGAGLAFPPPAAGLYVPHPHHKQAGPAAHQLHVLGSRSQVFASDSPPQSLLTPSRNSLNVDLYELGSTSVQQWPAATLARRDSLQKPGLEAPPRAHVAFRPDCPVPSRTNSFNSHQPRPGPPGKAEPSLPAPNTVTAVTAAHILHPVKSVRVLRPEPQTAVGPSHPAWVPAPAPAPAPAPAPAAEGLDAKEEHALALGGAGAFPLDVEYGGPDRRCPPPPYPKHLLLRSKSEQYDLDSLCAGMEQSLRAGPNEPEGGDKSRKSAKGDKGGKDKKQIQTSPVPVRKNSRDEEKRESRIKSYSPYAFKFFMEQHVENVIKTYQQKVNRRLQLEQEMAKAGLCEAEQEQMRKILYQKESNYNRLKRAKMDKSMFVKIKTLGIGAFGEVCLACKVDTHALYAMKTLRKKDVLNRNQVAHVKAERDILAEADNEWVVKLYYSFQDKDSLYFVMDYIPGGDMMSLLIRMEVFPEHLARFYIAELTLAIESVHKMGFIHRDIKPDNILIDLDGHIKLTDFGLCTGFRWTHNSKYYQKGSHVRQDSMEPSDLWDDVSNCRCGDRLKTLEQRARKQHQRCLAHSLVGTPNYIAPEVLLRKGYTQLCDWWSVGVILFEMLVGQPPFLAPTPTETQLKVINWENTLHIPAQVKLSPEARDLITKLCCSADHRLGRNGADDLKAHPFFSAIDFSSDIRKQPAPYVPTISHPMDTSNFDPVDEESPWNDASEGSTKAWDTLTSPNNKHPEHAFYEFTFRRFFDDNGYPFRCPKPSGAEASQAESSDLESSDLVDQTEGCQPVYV
Protocol: as §1

various enzymes [3] = molecular target: various enzymes (Homo sapiens, UniProt P08581); settings: MET; 1 uM
various enzymes (Homo sapiens, UniProt P08581), sequence (P08581 25-1390): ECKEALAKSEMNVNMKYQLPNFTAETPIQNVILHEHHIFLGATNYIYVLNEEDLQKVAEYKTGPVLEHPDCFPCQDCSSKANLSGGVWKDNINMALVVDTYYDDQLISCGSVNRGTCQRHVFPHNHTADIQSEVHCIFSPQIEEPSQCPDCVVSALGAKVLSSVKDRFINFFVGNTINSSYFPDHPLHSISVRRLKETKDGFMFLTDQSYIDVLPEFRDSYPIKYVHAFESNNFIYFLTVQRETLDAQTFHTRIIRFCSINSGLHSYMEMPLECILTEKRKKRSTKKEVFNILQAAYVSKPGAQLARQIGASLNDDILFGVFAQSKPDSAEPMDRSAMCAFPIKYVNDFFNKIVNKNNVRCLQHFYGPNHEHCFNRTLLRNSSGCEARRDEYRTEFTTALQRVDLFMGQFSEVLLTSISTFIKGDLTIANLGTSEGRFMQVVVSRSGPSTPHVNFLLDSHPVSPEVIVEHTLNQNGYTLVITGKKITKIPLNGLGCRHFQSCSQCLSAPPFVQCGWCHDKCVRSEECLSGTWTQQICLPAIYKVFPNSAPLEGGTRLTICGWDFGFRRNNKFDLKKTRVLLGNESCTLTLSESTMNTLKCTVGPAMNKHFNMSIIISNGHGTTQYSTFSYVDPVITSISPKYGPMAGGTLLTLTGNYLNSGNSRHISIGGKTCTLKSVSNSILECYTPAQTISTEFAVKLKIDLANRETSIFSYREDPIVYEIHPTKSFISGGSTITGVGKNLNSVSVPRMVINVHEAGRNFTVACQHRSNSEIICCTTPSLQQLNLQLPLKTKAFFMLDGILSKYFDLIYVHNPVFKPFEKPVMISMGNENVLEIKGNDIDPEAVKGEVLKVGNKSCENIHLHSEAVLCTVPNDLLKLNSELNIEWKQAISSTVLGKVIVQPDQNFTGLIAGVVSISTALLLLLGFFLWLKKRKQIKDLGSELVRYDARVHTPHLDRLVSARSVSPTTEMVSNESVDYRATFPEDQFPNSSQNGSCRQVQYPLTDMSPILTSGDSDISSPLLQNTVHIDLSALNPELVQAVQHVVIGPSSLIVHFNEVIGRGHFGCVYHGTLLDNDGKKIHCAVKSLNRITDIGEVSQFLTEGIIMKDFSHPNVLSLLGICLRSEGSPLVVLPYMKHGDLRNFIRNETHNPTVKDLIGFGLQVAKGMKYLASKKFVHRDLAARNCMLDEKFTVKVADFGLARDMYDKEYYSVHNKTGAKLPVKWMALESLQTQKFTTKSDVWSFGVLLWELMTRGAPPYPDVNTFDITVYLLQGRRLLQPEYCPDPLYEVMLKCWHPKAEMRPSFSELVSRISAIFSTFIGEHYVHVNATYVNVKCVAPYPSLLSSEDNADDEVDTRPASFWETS
Protocol: as §1

various enzymes [4] = molecular target: T2, various enzymes (Homo sapiens, UniProt O75385); settings: ULK1; 1 uM
T2 sequence (O75385 1-1050): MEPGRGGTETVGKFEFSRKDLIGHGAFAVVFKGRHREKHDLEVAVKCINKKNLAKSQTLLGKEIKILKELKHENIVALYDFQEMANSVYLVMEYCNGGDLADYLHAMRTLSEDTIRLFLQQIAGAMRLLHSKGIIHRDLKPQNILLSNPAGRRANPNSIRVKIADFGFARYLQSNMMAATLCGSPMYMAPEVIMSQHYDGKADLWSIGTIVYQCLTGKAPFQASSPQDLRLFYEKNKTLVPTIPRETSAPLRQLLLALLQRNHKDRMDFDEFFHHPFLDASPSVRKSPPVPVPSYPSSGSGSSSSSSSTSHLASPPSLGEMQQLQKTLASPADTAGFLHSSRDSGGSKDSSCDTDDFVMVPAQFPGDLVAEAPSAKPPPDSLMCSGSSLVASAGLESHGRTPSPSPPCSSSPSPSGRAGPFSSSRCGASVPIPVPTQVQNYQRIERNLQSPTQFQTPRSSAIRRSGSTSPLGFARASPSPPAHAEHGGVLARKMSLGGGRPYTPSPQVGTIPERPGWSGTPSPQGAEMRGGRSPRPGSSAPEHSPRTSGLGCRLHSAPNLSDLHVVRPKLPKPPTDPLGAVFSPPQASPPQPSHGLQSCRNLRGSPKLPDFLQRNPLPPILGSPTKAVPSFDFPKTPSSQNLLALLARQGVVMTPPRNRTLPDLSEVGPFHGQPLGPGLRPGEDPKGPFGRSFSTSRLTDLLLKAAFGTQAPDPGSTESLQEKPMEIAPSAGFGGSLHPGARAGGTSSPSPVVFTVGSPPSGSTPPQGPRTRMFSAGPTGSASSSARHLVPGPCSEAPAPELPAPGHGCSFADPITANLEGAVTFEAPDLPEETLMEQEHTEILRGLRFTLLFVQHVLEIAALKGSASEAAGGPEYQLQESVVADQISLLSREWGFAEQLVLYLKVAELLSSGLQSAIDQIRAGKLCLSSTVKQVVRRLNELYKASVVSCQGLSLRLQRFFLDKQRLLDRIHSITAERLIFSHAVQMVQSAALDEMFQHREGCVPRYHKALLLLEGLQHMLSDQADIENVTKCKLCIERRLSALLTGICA
Protocol: as §1

various enzymes [5] = molecular target: T3, various enzymes (Homo sapiens, UniProt O60285); settings: ARK5; 1 uM
T3 sequence (O60285 1-661): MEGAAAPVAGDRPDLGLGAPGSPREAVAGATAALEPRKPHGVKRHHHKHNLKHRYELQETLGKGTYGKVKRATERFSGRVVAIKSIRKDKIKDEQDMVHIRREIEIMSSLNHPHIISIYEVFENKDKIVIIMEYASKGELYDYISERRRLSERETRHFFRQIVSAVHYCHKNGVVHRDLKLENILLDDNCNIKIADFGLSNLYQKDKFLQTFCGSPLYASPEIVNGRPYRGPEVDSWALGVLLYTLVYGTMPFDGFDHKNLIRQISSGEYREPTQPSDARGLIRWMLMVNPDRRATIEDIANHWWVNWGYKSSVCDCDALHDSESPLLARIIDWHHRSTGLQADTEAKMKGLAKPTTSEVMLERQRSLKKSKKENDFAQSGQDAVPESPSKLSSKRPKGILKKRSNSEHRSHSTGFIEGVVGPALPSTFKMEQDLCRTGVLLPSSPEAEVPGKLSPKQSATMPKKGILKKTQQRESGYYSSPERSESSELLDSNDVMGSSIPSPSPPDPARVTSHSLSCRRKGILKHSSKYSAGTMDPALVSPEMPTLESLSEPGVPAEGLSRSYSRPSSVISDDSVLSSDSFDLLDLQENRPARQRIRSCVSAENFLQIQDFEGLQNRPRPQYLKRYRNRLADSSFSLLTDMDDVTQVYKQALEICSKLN
Protocol: as §1

various enzymes (Homo sapiens, UniProt Q9Y6M4), sequence (Q9Y6M4 whole entry): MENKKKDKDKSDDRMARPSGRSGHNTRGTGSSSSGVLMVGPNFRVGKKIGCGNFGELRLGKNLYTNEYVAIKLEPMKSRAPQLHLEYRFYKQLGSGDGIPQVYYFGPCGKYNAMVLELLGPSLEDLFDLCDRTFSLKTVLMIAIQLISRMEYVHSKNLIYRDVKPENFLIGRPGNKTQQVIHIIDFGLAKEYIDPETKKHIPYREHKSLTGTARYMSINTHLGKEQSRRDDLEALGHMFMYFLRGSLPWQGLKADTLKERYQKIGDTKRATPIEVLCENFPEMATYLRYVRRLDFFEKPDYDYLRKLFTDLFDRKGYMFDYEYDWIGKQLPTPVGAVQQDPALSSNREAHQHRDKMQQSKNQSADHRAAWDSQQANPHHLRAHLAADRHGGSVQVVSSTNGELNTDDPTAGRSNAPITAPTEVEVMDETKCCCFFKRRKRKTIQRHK

Row | SMILES | Ambit profiling (various enzymes [1]) | Ambit profiling (various enzymes [2]) | Ambit profiling (various enzymes [3]) | Ambit profiling (various enzymes [4]) | Ambit profiling (various enzymes [5])
1 | CN1Cc2nn(C)cc2-c2cnc3[nH]cc(c3c2)-c2cnn(c2)CCCC1=O [Compound 41, (Z)-31,5-dimethyl-11H,21H,31H-5-aza-2(3,5)-pyrrolo[2,3-b]pyridina-1(4,1),3(4,3)-dipyrazolacyclononaphan-6-one] | 100 | 63 | 30 | 22 | 8.9
2 | CN1Cc2nn(C)c(C#N)c2-c2cnc3[nH]cc(c3c2)-c2cn(nc2C(F)(F)F)CCCC1=O [Compound 48, (Z)-31,5-dimethyl-6-oxo-13-(trifluoromethyl)-11H,21H,31H-5-aza-2(3,5)-pyrrolo[2,3-b]pyridina-1(4,1),3(4,3)-dipyrazolacyclononaphane-35-carbonitrile] | 98 | 100 | 48 | 100 | 100
